System: intra-gastric pH
Assay: Measurement of intra-gastric pH in dogs (gastric fistula, pH electrode)
Assay type: in vivo, dog
Settings: for change of intra-gastric pH value after dosing / time for which the low intra-gastric pH is maintained: dogs, orally, dose not given
Method: Male beagle dogs are used. A metallic cannula is placed in on the left side of the abdomen at the lowest part of the distal gastric corpus region near the greater curvature by a surgical operation. Intra-gastric pH is measured continuously by a flexible pH electrode inserted via the gastric fistula. Vehicle or drugs are administered orally to the dogs.
Compound A 3 mg/kg is orally administered to dogs in a similar way described in Example 1. Intra-gastric pH value is between 2 and 7 in the vehicle-treated conscious dogs.

Row | Structure (SMILES) | time for which the low intra-gastric pH value is maintained (male beagle dogs, 3 mg/kg orally) | intra-gastric pH value maintained after administration (male beagle dogs, 3 mg/kg orally, both dogs) | change of intra-gastric pH value after administration (male beagle dogs, 3 mg/kg orally, conscious, FIG. 2) | change of intra-gastric pH value after dosing | time for which the low intra-gastric pH is maintained
1 | CN1N=C2CCN(C(=O)[C@@H](COCc3ccccc3)NC(=O)C(C)(C)N)C[C@@]2(Cc2ccccc2)C1=O [Compound A, 2-amino-N-[2-(3a-(R)-benzyl-2-methyl-3-oxo-2,3,3a,4,6,7-hexahydropyrazolo[4,3-c]pyridin-5-yl)-1-(R)-benzyloxymethyl-2-oxo-ethyl]isobutyramide] | more than 3 hours | below 2.5 | rapidly decreases after the administration |  | 
2 | CC(C)(N)C(=O)N[C@H](COCc1ccc(F)cc1F)C(=O)N1CCC2=NN(CC(F)(F)F)C(=O)[C@]2(Cc2ccccn2)C1 [Compound B, 2-amino-N-[1-(R)-(2,4-difluoro-benzyloxymethyl)-2-oxo-2-(3-oxo-3a-(R)-pyridin-2-ylmethyl-2-(2,2,2-trifluoro-ethyl)-2,3,3a,4,6,7-hexahydropyrazolo[4,3-c]pyridin-5-yl)-ethyl]-2-methyl-propionamide] |  |  |  | decreases soon just after dosing | more than 3 hours
3 | CN(C)N(C)C(=O)[C@@]1(Cc2ccccc2)CCCN(C(=O)[C@@H](Cc2c[nH]c3ccccc23)NC(=O)C(C)(C)N)C1 [Compound C] |  |  |  | decreases soon just after dosing | more than 3 hours
4 | CN(C(=O)/C=C/CC1(N)CCC1)[C@H](Cc1ccc(-c2ccccc2)cc1)C(=O)N(C)[C@H](Cc1ccccc1)C(=O)N1CCC(O)CC1 [Compound D, (E)-N—((R)-3-([1,1′-biphenyl]-4-yl)-1-(((R)-1-(4-hydroxypiperidin-1-yl)-1-oxo-3-phenylpropan-2-yl)(methyl)amino)-1-oxopropan-2-yl)-4-(1-aminocyclobutyl)-N-methylbut-2-enamide] |  |  |  | decreases soon just after dosing | more than 3 hours
5 | C[C@@H]1CN[C@@H](C2CC2)C(=O)N(C)[C@H](C)C(=O)N[C@H](Cc2ccc(F)cc2)C(=O)NCCCc2ccccc2O1 [Compound E, (2R,5S,8R,11R)-5-cyclopropyl-11-(4-fluorobenzyl)-2,7,8-trimethyl-4,5,7,8,10,11,13,14,15,16-decahydro-2H-benzo[q][1,4,7,10,13]oxatetraazacyclooctadecine-6,9,12(3H)-trione] |  |  |  | decreases soon just after dosing | more than 3 hours

— patent US20150099709A1, “GHRELIN RECEPTOR AGONISTS FOR THE TREATMENT OF ACHLORHYDRIA” (RaQualia Pharma Inc., priority 2012, published 2015)
